This series is described as follows: Water solubility of the isolated powder (observation after work-up). The format is physicochemical. As to conditions: isolated lemon-yellow powder. As for the experimental part:
To a premixed solution of 6.0 g ethylene diamine in 30 ml ethanol was added 30.8 g of 5-benzoyl-4-hydroxy-2-methoxy benzenesulfonic acid and stirred well until a solution was formed. The mixture was heated to 130° C. for 16 hours and then cooled to 70° C. The ethanol residue was flashed off in a vacuum oven at 70° C.
To a premixed solution of 11.6 g hexamethylene diamine in 40 g ethanol was added 30.8 g of 5-benzoyl-4-hydroxy-2-methoxy benzenesulfonic acid and stirred well until a solution was formed. The mixture was heated to 130° C. for 16 hours and then cooled to 70° C. The ethanol residue was flashed off in a vacuum oven at 70° C.
An amount of 7.4 g propylene diamine, 30.8 g of 5-benzoyl-4-hydroxy-2-methoxy benzenesulfonic acid, and 30 ml of 1:1 ethanol-water mixture was stirred well until a clear solution was obtained. […] The ethanol residue was flashed off in a vacuum oven at 70° C.

As for “2-hydroxy-4-methoxy-5-(N-3-aminopropyl)sulfonamido-4′-methylbenzophenone [Example 5]”, the solubility in water result is “insoluble in water”.

As to “2-hydroxy-4-methoxy-5-(N-6-aminohexyl) sulfonamido-4′-methylbenzophenone [Example 4]”, the solubility in water entry was “insoluble in water”.
